Test results: patent US7973062B2, “Androgen receptor-ablative agents” (The Ohio State University Research Foundation, priority 2008, dated 2011)

Key:
Format in all cases: cell-based
[1] = test system: androgen receptor (AR) expression; assay: Western blot analysis of AR protein expression in LNCaP cells; conditions: for suppression of AR protein expression (in words): 72 h, Western blot
Description: RT-PCR and Immunoblotting. LNCaP cells were cultured in T25 flasks at an initial density of 1×10^6 cells/flask. After exposure to various compounds at the indicated conditions, cells were subject to total RNA isolation by using an RNeasy mini-kit (QIAGEN, Valencia, Calif.). RNA concentrations were determined by measuring absorption at 260 nm in a spectrophotometer. Aliquots of 6 μg of total RNA from each sample were reverse-transcribed to cDNA using an Omniscript RT Kit (QIAGEN) according to the manufacturer's instructions, using suitable primers.
For immunoblotting, protein extracts were prepared by M-PER Mammalian Protein Extraction Reagent (Pierce, Rockford, Ill.) with freshly added 1% phosphatase and protease inhibitor cocktails (Calbiochem) followed by centrifugation at 13,000×g for 10 min. Supernatant was collected and protein concentration was determined by protein assay reagent (Bio-Rad, CA). Protein extracts were then suspended in 2×SDS sample buffer, and subject to 10% SDS-polyacrylamide gels. After electrophoresis, proteins were transferred to nitrocellulose membranes using a semidry transfer cell. The transblotted membrane was washed twice with Tris-buffered saline containing 0.1% Tween 20 (TBST). After blocking with TBST containing 5% nonfat milk for 1 h, the membrane was incubated with mouse monoclonal anti-AR (Santa Cruz) or anti-β-actin (MP Biomedicals) antibodies (diluted 1:1000) in 1% TBST nonfat milk at 4° C. overnight. After incubation with the primary antibody, the membrane was washed three times with TBST for a total of 30 min, followed by incubation with horseradish peroxidase conjugated goat anti-mouse IgG (diluted 1:2500) for 1 h at room temperature. After three thorough washes with TBST for a total of 30 min, the immunoblots were visualized by enhanced chemiluminescence.

[2] = test system: AR promoter; assay: AR promoter-luciferase reporter assay in transiently transfected LNCaP cells; conditions: compounds at 10 μM, 48 h, ciglitazone and Δ2CG at 20 μM
Text: (§1) Transfection and Luciferase assay. The 3.6-kilobase AR promoter-linked reporter plasmid p-3600ARCAT was kindly provided by Dr. Chawnshang Chang (University of Rochester Medical Center, Rochester, N.Y.). The AR promoter gene (−3600 to +550) encompassing the transcription start site was isolated by using PCR to generate hAR-luc with suitable primers. The fragment was subcloned into the pGL3 luciferase reporter vector (Promega, Madison, Wis.) at KpnI and BglII in the multiple cloning site. The PPRE-x3-TK-Luc reporter vector contains three copies of the PPAR-response element (PPRE) upstream of the thymidine kinase promoter-luciferase fusion gene and was kindly provided by Dr. Bruce Spiegelman (Harvard University, Cambridge, Mass.). The pCMVSp1 plasmid was purchased from Origene Technologies, Inc. (Rockville, Md.). LNCaP or PC3 cells were transfected with 5 μg of individual plasmids in an Amaxa Nucleofector using a cell line-specific nucleofector kit according to the manufacturer's protocol (Amaxa Biosystems, Cologne, Germany), and then seeded in 6-well plates at 5×10^5 cells per well for 48 h. The transfection efficiency was determined to be 70-80% by transfecting cells with 2 μg of pmaxGFP plasmid, followed by fluorescence microscopy to measure GFP expression. For each transfection, herpes simplex virus thymidine kinase promoter-driven Renilla reniformis luciferase was used as an internal control for normalization.
For the reporter gene assay, after transfection, cells were cultured in 24-well plates in 10% FBS-supplemented RPMI 1640 medium for 48 h, subject to different treatments for the indicated times, collected, and lysed with passive lysis buffer (Promega). Fifty-μl aliquots of the lysates were added to 96-well plates, and luciferase activity was monitored after adding 100 μl of luciferase substrate (Promega) each well by using a MicroLumatPlus LB96V luminometer (Berthold Technologies, Oak Ridge, Tenn.) with the WinGlow software package. All transfection experiments were carried out in six replicate.

[3] = test system: LNCaP androgen-responsive prostate cancer cells; assay: MTT cell viability assay, LNCaP cells; conditions: 48 h
Description: Cell Counting and Cell Viability Assay. LNCaP or PC-3 cells were placed in six-well plates (2.5×10^5 cells/well) in 10% FBS-supplemented RPMI 1640 for 24 h, and treated with various concentrations of compound 12 for additional 24, 48 and 72 h. Cells were then trypsinized and counted by using a Coulter counter (Model Z1 D/T, Beckman Coulter, Fullerton, Calif.). Cell viability was assessed by using the 3-(4,5-dimethylthiazol-2-yl)-2,5-diphenyl-2H-tetrazolium bromide (MTT) assay in six replicates in 96-well plates. LNCaP or PC-3 cells were seeded at 6000 cells per well in 10% FBS-supplemented RPMI 1640 for 24 h, followed by treatments with various compounds in 5% FBS-supplemented RPMI 1640 at the indicated concentrations. Controls received DMSO at a concentration equal to that in drug-treated cells. After the end of incubation, MTT (0.5 mg/ml) in 10% FBS-supplemented RPMI 1640 was added to each well, and cells were incubated at 37° C. for 2 hours. Medium was removed and the reduced MTT dye was solubilized in DMSO (200 μl/well). Absorbance was determined at 570 nm by a 96-well plate reader.

[4] = target: T1, PPARγ (Homo sapiens, UniProt P37231); assay: PPRE-luciferase reporter assay (PPRE-x3-TK-Luc) in PC-3 cells; conditions: PC-3 cells transfected with PPRE-x3-TK-Luc
T1 construct: In PC-3 cells transfected with a reporter construct (PPRE-x3-TK-Luc); endogenous in cells; host or cells: PC-3
T1 sequence (P37231 1-505): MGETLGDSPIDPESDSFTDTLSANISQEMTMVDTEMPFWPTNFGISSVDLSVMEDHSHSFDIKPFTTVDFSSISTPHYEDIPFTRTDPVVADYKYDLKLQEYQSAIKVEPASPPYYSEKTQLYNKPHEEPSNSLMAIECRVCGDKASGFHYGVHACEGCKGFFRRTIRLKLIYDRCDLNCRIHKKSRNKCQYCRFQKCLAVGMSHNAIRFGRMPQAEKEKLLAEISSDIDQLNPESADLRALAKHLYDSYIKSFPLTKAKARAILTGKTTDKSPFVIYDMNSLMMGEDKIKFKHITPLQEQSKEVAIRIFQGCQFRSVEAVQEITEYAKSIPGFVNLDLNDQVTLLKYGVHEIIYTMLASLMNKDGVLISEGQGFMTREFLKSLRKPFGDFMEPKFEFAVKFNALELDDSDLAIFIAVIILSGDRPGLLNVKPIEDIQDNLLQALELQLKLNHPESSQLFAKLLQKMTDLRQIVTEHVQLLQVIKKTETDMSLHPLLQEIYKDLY
Text: as §1, with “The transfection efficiency was determined to be 70-80% by transfecting cells with 2 μg of pmaxGFP plasmid, followed by fluorescence microscopy to measure GFP expression.” left out
Fifty-μl aliquots of the lysates were added to 96-well plates, and luciferase activity was monitored after adding 100 μl of luciferase substrate (Promega) each well by using a MicroLumatPlus LB96V luminometer (Berthold Technologies, Oak Ridge, Tenn.) with the WinGlow software package. All transfection experiments were carried out in six replicate.

[5] = test system: PARP cleavage, caspase 3 and caspase 7 activation; assay: Western blot of apoptosis-related biomarkers in LNCaP cells; conditions: 72 h

| Structure (SMILES) | suppression of AR protein expression (in words) ([1]; 10% FBS) | suppression of AR promoter-luciferase activity / AR transcription (in words) [2] | inhibition of LNCaP cell viability (in words) [3] | further results |
| --- | --- | --- | --- | --- |
| CC1(COc2cccc(/C=C3\SC(=O)NC3=O)c2)CCCCC1 [Compound 1, 5-[3-(1-Methyl-cyclohexylmethoxy)-benzylidene]-thiazolidine-2,4-dione] | dose-dependent effect on suppressing AR protein expression | enhanced AR-ablating activity | – | – |
| CCOc1cc(/C=C2\SC(=O)NC2=O)ccc1OCC1(C)CCCCC1 [Compound 6, 5-[3-Ethoxy-4-(1-methyl-cyclohexylmethoxy)-benzylidene]-thiazolidine-2,4-dione] | dose-dependent effect on suppressing AR protein expression | – | – | – |
| CC1(CN2C(=O)S/C(=C\c3ccc(O)cc3)C2=O)CCCCC1 [Compound 9, 5-(4-Hydroxy-benzylidene)-3-(1-methyl-cyclohexylmethyl)-thiazolidine-2,4-dione] | dose-dependent effect on suppressing AR protein expression | enhanced AR-ablating activity | – | – |
| CC1(CN2C(=O)S/C(=C\c3ccccc3O)C2=O)CCCCC1 [Compound 10, 5-(2-Hydroxy-benzylidene)-3-(1-methyl-cyclohexylmethyl)-thiazolidine-2,4-dione] | – | abolished the ability to suppress | abolished the ability to suppress | – |
| CC1(CN2C(=O)S/C(=C\c3cccc(O)c3)C2=O)CCCCC1 [Compound 11, 5-(3-Hydroxy-benzylidene)-3-(1-methyl-cyclohexylmethyl)-thiazolidine-2,4-dione] | – | abolished the ability to suppress | abolished the ability to suppress | – |
| CC1(CN2C(=O)S/C(=C\c3cc(Br)c(O)c(Br)c3)C2=O)CCCCC1 [Compound 16, 5-(3,5-Dibromo-4-hydroxy-benzylidene)-3-(1-methyl-cyclohexylmethyl)-thiazolidine-2,4-dione] | – | optimal agents | optimal agents | IC50 ([1]; 72-h exposure, Western blot (FIG. 4C), read-out: IC50 for suppressing AR expression): ~4 µM; PPARγ activation (in words) [4]: lacked appreciable activity; apoptosis-related biomarkers: PARP cleavage, proteolytic activation of caspase 3 and caspase 7 [5]: dose-dependent effects |
| CC1(CN2C(=O)SC(Cc3ccc(O)c(C(F)(F)F)c3)C2=O)CCCCC1 (stereo not shown) [Compound 20, 5-(4-Hydroxy-3-trifluoromethyl-benzyl)-3-(1-methyl-cyclohexylmethyl)-thiazolidine-2,4-dione] | retained the ability to suppress AR expression and cell viability, though with slightly lower potency | – | retained the ability to suppress AR expression and cell viability, though with slightly lower potency | – |
| CC1(COc2ccc(C=C3SC(=O)NC3=O)cc2)CCCCC1 [Δ2CG, reference compound] | modestly higher potency than ciglitazone | – | – | concentration required for complete suppression of AR protein expression ([1]; 10% FBS, Western blot (FIG. 2A)): approximately 30 μM; PPARγ activation (in words) [4]: lacked appreciable activity |
